Results published in US20220389058A1, “PEPTIDES AND COMPOSITIONS FOR USE IN COSMETICS AND MEDICINE” (LIPOTRUE, S.L., priority 2019, published 2022).

Legend:
[1] = tested on: integrin α9β1 (Itg9); assay: Integrin α9β1 protein expression, immunofluorescence in HDLMVEC (Example 19); type: cell-based, Human
Description: HDLMVEC were cultured on coverslips in Microvascular Endothelial Cell Growth (MECG) Medium at a density of 16.000 cell/cm^2 and 37° C. in a humidified atmosphere with 5% CO2.
When cell confluence was around 70-80%, cells were treated with 0.05 mg/mL Ac-SEQ ID NO:1-NH2 in MECG medium for 24 hours. Then, cells were washed twice with PBS, fixed with 4% formaldehyde and permeabilized with Triton 0.2%. Next, samples were blocked for 1 hour with PBS/BSA 5%, in order to avoid nonspecific antibody binding.
Itg9 was stained with 1:50 anti-Itg9 antibody in PBS/BSA 1%, during 1.5 hours at room temperature. After proper washing with PBS, actin was stained with 50 μg/mL Phalloidin during 1 hour at room temperature. Then, cells were washed with PBS and incubated with 5 μg/mL of the secondary antibody Goat anti-Rabbit IgG for 1 hour at room temperature. Finally, coverslips were mounted using Vectashield with DAPI, that stains nuclei, and samples were kept protected from light at 4° C. until microscopic images were acquired.
Microscopic images were acquired using 10×objective. […]
Images were analyzed using Image J software. Shortly, threshold was adjusted to select Itg9 staining and mean fluorescent was measured. The number of cells was counted using the DAPI staining. […]

[2] = Protein glycation (AGE formation), fluorimetric (Example 14); type: biochemical; conditions: 0.01, 0.05, 0.1 and 0.5 mg/mL; 72 hours at 37° C.; vs negative control
Description: Briefly, 0.01, 0.05, 0.1 and 0.5 mg/mL of peptide Ac-SEQ ID NO: 1-NH2 were mixed together with a glycation agent and its corresponding substrate. Samples were incubated for 72 hours at 37° C. A fluorimetric method was used to evaluate the % of protein glycation compared to the negative control (sample only with sugar substrate).

[3] = tested on: HEKa cells; assay: Genes related with response to sleep deprivation, RT-qPCR in HEKa (Example 16); type: cell-based, Human; conditions: 0.01 mg/ml, 24 hours
Description: (§1) A stock solution of the peptide was prepared in water at 1 mg/mL. Working solution was freshly prepared at the specified concentration from stock solution in the corresponding supplemented medium.
(§2) RNA (ribonucleic acid) extraction and RT-qPCR (reverse transcription quantitative polymerase chain reaction) were performed. Briefly, HEKa, HDFa or HUVEC cells were seeded in duplicate (n=2) in 6-well plates at a density of 4×10^5 cells/well (2×10^5 cells/well for HUVEC cells) and maintained at standard culture conditions (106 Medium supplemented with 1% (v/v) LSGS for HDFa cells; Medium Epilife supplemented with 1% (v/v) EDGS and 1% (v/v) penicillin/streptomycin for HEKa cells; Endothelial Cell Growth Medium for HUVEC cells; 37° C., 95% room humidity, 5% CO2) for 24 hours.
Then, cells were treated with peptide Ac-SEQ ID NO: 1-NH2 at the concentration of 0.01 mg/mL for 24 hours. Untreated cells were used as basal or negative control.
Cells were finally lysed, and replicates were pooled together for RNA extraction using Qiagen RNeasy Mini kit following manufacturer's instructions. Purified RNAs were used to generate the corresponding cDNAs (complementary deoxyribonucleic acids) by reverse transcription using a commercial kit High capacity cDNA reverse transcription kit (Applied Biosystems) which served as templates for amplification. RT-qPCR was performed with the panel of appropriate TaqMan assay probes for genes shown in table 10 (plus GAPDH—Glyceraldehyde 3-phosphate dehydrogenase—that was used as housekeeping gene) and 2×gene expression Master Mix using StepOne plus Real-Time PCR instrument. Amplification included 40 cycles of: 15 seconds at 95° C. (denaturation) and 1 minute at 60° C. (Annealing and extension) (Arya, M., Shergill, I. S., Williamson, M., Gommersall, L., Arya, N., Patel, H. R. (2005) Basic principles of real-time quantitative PCR. Expert Rev. Mol. Diagn.; 5(2):209-19; and Jozefczuk, J. and Adjaye, J. (2011) Quantitative real-time PCR-based analysis of gene expression. Methods Enzymol. 500; 99-109).
The obtained data was analysed using the ΔΔCt method, which provides the target gene expression values as fold changes in the treated sample compared with an untreated basal sample. Both samples were normalized with the relative expression of a housekeeping gene GAPDH (Glyceraldehyde 3-phosphate dehydrogenase).

[4] = tested on: IL33; assay: IL33 expression modulation by RT-qPCR in HDFa cells (Example 7); type: cell-based, Human; conditions: 0.01 mg/mL, 24 hours
Description: as §1
as §2, with “Briefly,” for “Briefly, HEKa,”, “and HEKa” for “or HUVEC”, “cells/well” for “cells/well (2×10^5 cells/well for HUVEC cells)”, “cells;” for “cells; Endothelial Cell Growth Medium for HUVEC cells;”, “hours. […]” for “hours.”
Cells were finally lysed, and replicates were pooled together for RNA extraction using Qiagen RNeasy Mini kit following manufacturer's instructions. […] (Annealing and extension) (Arya, M., Shergill, I. S., Williamson, M., Gommersall, L., Arya, N., Patel, H. R. (2005) Basic principles of real-time quantitative PCR. Expert Rev. Mol. Diagn.; 5(2):209-19; and Jozefczuk, J. and Adjaye, J. (2011) Quantitative real-time PCR-based analysis of gene expression. Methods Enzymol. 500; 99-109).
The obtained data was analysed using the ΔΔCt method, which provides the target gene expression values as fold changes in the treated sample compared with an untreated basal sample. […]

Ac-Arg-Arg-Gln-Met-Arg-Glu-NH2 (Ac-RRQMRE-NH2) [Ac-SEQ ID NO: 1-NH2]
% Mean of integrin α9β1 (Itg9) compared to untreated cells ([1]; 0.05 mg/mL, 24 hours, basal = 100.00): 153.56% | increase of the expression of Itg9 when compared with the untreated cells ([1]; 24 hours of treatment): > 50% | protein glycation [2]: able to protect from protein glycation | CXCL8 Fold change between treated cells and basal control [3]: −1.33 Fold change | MTNR1A Fold change between treated cells and basal control [3]: 2.11 Fold change | SIGIRR Fold change between treated cells and basal control [3]: 1.27 Fold change | SLC2A1 Fold change between treated cells and basal control [3]: −1.21 Fold change | IL33 expression, fold change treated cells with regard to basal control [4]: −1.22 fold change
